Laboratory results: paper PMC3608532, “Characterization of a Single-Chain Variable Fragment Recognizing a Linear Epitope of Aβ: A Biotechnical Tool for Studies on Alzheimer’s Disease?” (PLoS ONE, 2013)

How the values were obtained:
Aβ(1-10) = assay: ELISA binding to Aβ(1-10) peptides; conditions: 60 ng/well, 100% C-terminally biotinylated Aβ1-10; p = 0.19 versus N-bio oligomers
Method: An ELISA was applied to characterize the binding affinity of scFv-IC16 to different Aβ conformers. After concentration determination of the Aβ(1-42) monomer, oligomer and fibril preparations, each conformer was diluted in immobilization buffer (0.1 M NaHCO3, pH 9.3) to a concentration of 5 µg/ml, and coated on Nunc immobilizer streptavidin F96 clear plates (250 ng/well) (Nunc, Thermo Scientific, Waltham, MA, USA). Alternatively, Aβ monomers were prepared seedless in the same concentration by dissolving 50 µg N-terminally biotinylated Aβ(1-42) in 1 ml immobilization buffer and diluting it further to 5 µg/ml. N- or C-terminally biotinylated Aβ(1-10) peptides were dissolved in immobilization buffer to a final concentration of 1.2 µg/ml (60 ng/well). 50 µl of these Aβ solutions were incubated in the well for 1 h. Each well was washed with 100 µl immobilization buffer and the plate was stored at 4°C overnight in 100 µl immobilization buffer per well. Unspecific binding sites were blocked with 50 µl blocking buffer (PBS, 1% BSA) at room temperature for 1 h. […] The reaction was terminated by adding sulfuric acid to a final concentration of 1 M. The absorbance was recorded at 450 nm on Polarstar Optima plate reader (BMG, Ortenberg, Germany).

Aβ(1-42) monomers = assay: ELISA binding to Aβ(1-42) monomers; parameters: species or system human; conditions: 250 ng/well
Method: 1 mg of Aβ(1-42) or N-terminally/C-terminally biotinylated Aβ(1-42) was dissolved in 1 ml 1,1,1,3,3,3-hexafluorosiopropanol (HFIP) and incubated overnight at room temperature. Afterwards, Aβ(1-42) was mixed in the favored ratio with N-terminally/C-terminally biotinylated Aβ(1-42) and aliquoted. HFIP was evaporated using a SpeedVac (Concentrator 5301, Eppendorf, Germany) at room temperature for 30 min. To evaporate remaining HFIP, the sample was incubated overnight at room temperature with an open lid.
The preparation of Aβ(1-42) monomers and oligomers was carried out by size exclusion chromatography (SEC) as already described by Johansson et al with minor modifications. 250 µg of Aβ peptide was dissolved in 130 µl SEC buffer (50 mM NaPi, pH 7.4; 150 mM NaCl; 0.6% Tween-20) and briefly centrifuged (1 min, 16 100×g, room temperature) to remove insoluble fibrillar material. 100 µl of the supernatant was applied on a Superdex75 10/300 column (GE Healthcare, UK) connected to an Äkta purifier system (GE Healthcare, UK). The sample was eluted at a flow rate of 0.6 ml per min at room temperature and detected at wavelengths of 214, 250 and 278 nm. […] The concentration of the Aβ preparations was determined using the Micro BCA Protein Assay Kit (Thermo Scientific, Waltham, MA, USA). […] The samples were measured at a wavelength of 570 nm with a Polarstar Optima plate reader (BMG, Ortenberg, Germany). […]

With “scFv-IC16: single-chain variable fragment (VH-(Gly4Ser)3-VL, His6- and Myc-tag) derived from Aβ binding monoclonal antibody IC16, expressed in E. coli” the “ELISA binding to Aβ(1-10), C-terminal biotin tag” value (Aβ(1-10)) was “very similar to Aβ oligomers”, the “ELISA binding to Aβ monomers, C-terminal biotin tag” value (Aβ(1-42) monomers; 100% C-terminally biotinylated monomers, p = 0.038 versus N-bio oligomers) was “very similar to Aβ oligomers” and the “ELISA binding to Aβ monomers, N-terminal biotin tag” value (Aβ(1-42) monomers; 100% N-terminally biotinylated monomers on streptavidin plate) was “not detected”.
